What was measured:
[1] = system: caspase 3/7; experiment: Caspase 3/7 activity assay (APO-ONE) after staurosporine treatment; assay type: cell-based, Chinese Hamster; details: staurosporine 2 μM, 16 h
Method: About 3×10^5 cells of each clone were seeded in one ml of growth medium in a 24-well plate. On day 4 (d4) post seeding, about 1×10^5 cells were transferred in triplicate to a 96 well plate. Staurosprine (2 μM fc) was added and the cells were incubated for 16 h before assaying for caspase3/7 activity by APO-ONE kit (BD Labs). The procedure was repeated on d10, except that Staurosporine was omitted. […] The apoptotic^R nature of the selected clones was confirmed by flow cytometry analysis (see below) and in some instances, by measuring the mitochondrial membrane potential.
Each apoptotic^R cell line was examined for caspase 3/7 activity by APO-ONE as this activity provides an indication of the degree of resistance of a cell line to apoptosis. Briefly, in this assay, the profluorescent substrate Z-DEVD-R110 is cleaved by caspase 3/7 in a dose-dependent manner. Exponential cultures of EA167 and EAX197 as well as the control cell line were treated with staurosporine for 16 hours to induce apoptosis, following which caspase 3/7 was measured. The caspase 3/7 activity in staurosporine treated control cells was arbitrarily set at 100%. […] As further evidence of the apoptotic^R nature of EA167 and EAX197, staurosporine-treated cultures of these two cell lines and the control cell line, were labeled with FITC-conjugated anti-caspase 3 antibody followed by analysis by flow cytometry. […]

[2] = system: caspase 3; experiment: Flow cytometry with FITC-labeled anti-caspase 3 antibody after staurosporine treatment; assay type: cell-based, Chinese Hamster; details: staurosporine 2 μM, 16 h
Method: About 1×10^6 cells from exponential cultures were withdrawn from each shake flask into 24 well plates, incubated with Staurosporine (2 μM fc) for 16 h, harvested and washed once in PBS. The cells were then incubated with CytoPerm (Cat. No. 2075KK, BD BioScience) to fix and permeablized them. Following a PBS wash, cells were incubated with FITC-labeled anti-caspase3 (Cat. No. 68654, BD BioScience) antibody before subjecting them to analysis by flow cytometry.
Each apoptotic^R cell line was examined for caspase 3/7 activity by APO-ONE as this activity provides an indication of the degree of resistance of a cell line to apoptosis. Briefly, in this assay, the profluorescent substrate Z-DEVD-R110 is cleaved by caspase 3/7 in a dose-dependent manner. Exponential cultures of EA167 and EAX197 as well as the control cell line were treated with staurosporine for 16 hours to induce apoptosis, following which caspase 3/7 was measured. The caspase 3/7 activity in staurosporine treated control cells was arbitrarily set at 100%. […] As further evidence of the apoptotic^R nature of EA167 and EAX197, staurosporine-treated cultures of these two cell lines and the control cell line, were labeled with FITC-conjugated anti-caspase 3 antibody followed by analysis by flow cytometry. […] However, 91% of the control cell population was positive for caspase 3 following staurosporine treatment. In contrast, only 9% of the population derived from cell line EAX197 and 30% of that derived from cell line EA167 were positive for caspase 3, confirming the apoptotic^R phenotype of these two cell lines.

Q: With CN[C@@H]1C[C@H]2O[C@@](C)([C@@H]1OC)n1c3ccccc3c3c4c(c5c6ccccc6n2c5c31)C(=O)NC4 [staurosporine] as the compound, how does the “caspase 3/7 activity, of staurosporine treated control cells (set at 100%)” value ([1]; EA167 cells (CHOK1SV expressing E1B-19K + Aven)) read?
A: The value was 30%.

Q: And the “caspase 3/7 activity, of staurosporine treated control cells (set at 100%)” value ([1]; EAX197 cells (CHOK1SV expressing E1B-19K + Aven + XIAPΔ))?
A: Its value is 35%.

Q: And the “cell population positive for caspase 3” value ([2]; EA167 cells)?
A: The value was 30%.

Q: What about the “cell population positive for caspase 3” value ([2]; EAX197 cells) of the same compound?
A: Its value is 9%.

Q: What about the “cell population positive for caspase 3” value ([2]; control cell line (CHOK1SV, C1013A)) of the same compound?
A: The value was 91%.

Source: patent US20090325287A1, “Methods for Obtaining High Viable Cell Density in Mammalian Cell Culture” (priority 2008, published 2009)
